Measurements: ChEMBL document CHEMBL1201862, “PubChem BioAssay data set” (2004)
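Exposure lasted 48 hours, with cells grown in 96-well plates and compounds tested at five concentrations. Here, GI50 denotes the concentration required for 50% inhibition of growth.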 The source made the active and inactive calls. No stated cut-off is given here; in the data, active = GI50 up to about 1.1 µM and inactive = higher.

Assays:
Assay in all cases: inhibition of tumour cell growth, NCI panel, 48 h
[1] = test system: KM12
[2] = test system: SNB-19
[3] = test system: IGROV-1
[4] = test system: M19-MEL
[5] = test system: SNB-75
[6] = test system: NCI-H460
[7] = test system: CCRF-CEM
[8] = test system: SF-295
[9] = test system: HCT-15
[10] = test system: DMS-114
[11] = test system: ACHN
[12] = test system: K562
[13] = test system: RPMI-8226
[14] = test system: HCT-116
[15] = test system: SK-OV-3
[16] = test system: OVCAR-4
[17] = test system: SK-MEL-2
[18] = test system: SK-MEL-5
[19] = test system: HCC 2998
[20] = test system: OVCAR-8
[21] = test system: HOP-62
[22] = test system: UACC-257
[23] = test system: OVCAR-5
[24] = test system: SR
[25] = test system: 786-0
[26] = test system: U-251
[27] = test system: CAKI-1
[28] = test system: EKVX
[29] = test system: Malme-3M
[30] = test system: SF-268
[31] = test system: SF-539
[32] = test system: RXF 631
[33] = test system: RXF 393
[34] = test system: A549
[35] = test system: SNB-78
[36] = test system: HL-60
[37] = test system: HOP-18
[38] = test system: HT-29
[39] = test system: TK-10
[40] = test system: MOLT-4
[41] = test system: A498
[42] = test system: LOX IMVI
[43] = test system: UACC-62
[44] = test system: NCI-H23
[45] = test system: XF498
[46] = test system: SK-MEL-28
[47] = test system: SW-620
[48] = test system: KM-20L2
[49] = test system: DMS-273
[50] = test system: SN12C
[51] = test system: M14
[52] = test system: DLD-1
[53] = test system: UO-31
[54] = test system: LXFL 529

Measured: GI50

Nc1ccc2n[se]nc2c1
> 100 µM: [9]
inactive: [1] 48.1 µM | [2] > 100 µM | [3] > 100 µM | [4] > 100 µM | [5] > 100 µM | [6] > 100 µM | [7] > 100 µM | [8] > 100 µM | [10] > 100 µM | [11] > 100 µM | [12] > 100 µM | [13] > 100 µM | [14] > 100 µM | [15] > 100 µM | [16] > 100 µM | [17] 79.1 µM | [18] > 100 µM | [19] > 100 µM | [20] > 100 µM | [21] > 100 µM | [22] > 100 µM | [23] > 100 µM | [24] > 100 µM | [25] > 100 µM | [26] > 100 µM | [27] > 100 µM | [28] > 100 µM | [29] > 100 µM | [30] > 100 µM | [31] > 100 µM | [32] > 100 µM | [33] > 100 µM | [34] > 100 µM | [35] > 100 µM | [36] 42.4 µM | [37] > 100 µM | [38] > 100 µM | [39] 23.8 µM | [40] > 100 µM | [41] > 100 µM | [42] 29.6 µM | [43] > 100 µM | [44] > 100 µM | [45] > 100 µM | [46] > 100 µM | [47] > 100 µM | [48] > 100 µM | [49] > 100 µM | [50] > 100 µM | [51] > 100 µM | [52] > 100 µM | [53] > 100 µM | [54] > 100 µM
